Data published in patent US20170088601A1, “CD133 EPITOPES” (CEDARS-SINAI MEDICAL CENTER, priority 2008, published 2017).

Columns and labels:
[1] = system: HLA-A2 and CD133 positive cancer stem cells (CSC4); experiment: IFN-γ ELISA of peptide-stimulated CTLs against cancer stem cells; assay type: cell-based, human; conditions: ELISA of supernatant
Procedure: (§1) The binding of the peptide-primed CTLs to HLA-A2 positive human cells was also tested. To generate dendritic cells, the plastic adherent cells from PBMCs were cultured in AIM-V medium supplemented with recombinant human GM-CSF and recombinant human IL-4 at 37° C. in a humidified incubator with 5% CO2. Six days later, the immature dendritic cells were stimulated with recombinant human TNF-alpha for maturation. Mature dendritic cells were then harvested on day 8, resuspended in PBS at 1×10^6/mL with the indicated peptides (2 μg/mL), and incubated for 2 hours at 37° C. Autologous PBMCs (2×10^6 per well) were cocultured with 2×10^5 per well peptide-pulsed dendritic cells in 2 mL/well of AIM-V medium supplemented with 5% human AB serum and 10 units/mL rhIL-7 (Cell Sciences) in each well of 24-well tissue culture plates.
(§2) On the next day and then every 3 days thereafter, 300 IU/ml of IL-2 was added to the medium. On day 7, lymphocytes were restimulated with autologous dendritic cells in AIM-V medium supplemented with 5% human AB serum, rhIL-2, and rhIL-7 (10 units/mL each). To generate peptide-specific CTLs, CD8 (+) T cells were isolated from healthy donors, then stimulated by autologous DC pulsed with peptide. After three cycle stimulations, these CTLs could efficiently recognize both HLA-A2 and CD133 positive cancer stem cells, as measured by amount of IFN-γ (pg/ml) in supernatant detected by ELISA (Table 2). However, they could not recognize the CD133 positive normal neural stem cells due to their absence of MHC expression.

T2 cells = experiment: IFN-γ ELISA of peptide-stimulated CTLs against peptide-pulsed T2 cells; assay type: cell-based, human; conditions: ELISA of supernatant
Procedure: as §1, §2

[2] = biological target: T1, HLA-A2 molecules (HLA-A*0201) on T2 cells (Homo sapiens, UniProt P04439, D140Y/D185E/D98H/E176V/E277Q/G131W/G231S/I119V/I121R/I166T/I218V/L300P/L318F/N151K/N90K/P208A/P217A/Q86G/Q94H/R138H/R169H/T345S); experiment: Binding of peptides to HLA-A2 and stability of HLA-A*0201/peptide complexes on T2 cells (BB7.2 mAb staining)
T1 construct: mean fluorescence of peptide preincubated T2 cells; endogenous in cells; host or cells: T2 cells
Procedure: The cells were then incubated with Brefeldin A (Sigma, St. Louis, Mo.) at 10 μg/ml for 1 hour, washed, incubated at 37° C. for 0, 3, or 6 hours in the presence of Brefeldin A (0.5 μg/ml), and then stained with BB7.2 mAb. […] DC50 was defined as the time required for the loss of 50% of the HLA-A*0201/peptide complexes stabilized at t=0.

[3] = system: CD8 (+) T cells from healthy donors; experiment: HLA-A*0201/peptide tetramer staining of peptide-induced CTLs, flow cytometry; assay type: cell-based, human
Procedure: To generate peptide-specific CTLs, CD8 (+) T cells were isolated from healthy donors, then stimulated by autologous DC pulsed with peptide. Specific T cells were generated after PBMCs were stimulated by autologous DC pulsed with irradiated, apoptotic cancer stem cells (CSCs). Phycoerythrin-conjugated HLA-A*0201/peptide tetramers were synthesized. The cells were stained with tetramers (5 ng/ml) in PBS+0.5% human AB serum for 1 hour at room temperature, washed once in the same buffer, stained with anti-human CD8-FITC (BD Biosciences) mAbs for 30 minutes at 4° C. followed by flow cytometry analysis.

[4] = biological target: T2, HLA-A2 molecules on T2 cells (Homo sapiens, UniProt P04439, D140Y/D185E/D98H/E176V/E277Q/G131W/G231S/I119V/I121R/I166T/I218V/L300P/L318F/N151K/N90K/P208A/P217A/Q86G/Q94H/R138H/R169H/T345S); experiment: Binding of mouse CD133 peptide to HLA-A2 on T2 cells (BB7.2 mAb, flow cytometry); conditions: 0 μM, 10 μM or 100 μM peptide overnight
T2 construct: mean fluorescence of peptide preincubated T2 cells; endogenous in cells; host or cells: T2 cells
Procedure: The mouse counterpart of SEQ ID NO:1, […] (SEQ ID NO:11) also bound to HLA-A2, despite having only two amino acid residues in common. T2 cells were incubated overnight with 0 μM, 10 μM, or 100 μM of SEQ ID NO:11. The cells were then incubated with Brefeldin A (Sigma, St. Louis, Mo.) at 10 μg/ml for 1 hour, washed, incubated at 37° C. in the presence of Brefeldin A ([…]), and then stained with BB7.2 mAb. Fluorescence intensity was measured by flow cytometry.

| Sequence | IFN-γ induced by PBMC stimulus for CTL generation, target CSC4 [1] [pg/mL] | IFN-γ induced by PBMC stimulus for CTL generation, target T2 + 117 (T2 cells) [pg/mL] | IFN-γ induced by PBMC stimulus for CTL generation, target T2 + 301 (T2 cells) [pg/mL] | IFN-γ induced by PBMC stimulus for CTL generation, target T2 + 405 (T2 cells) [pg/mL] | IFN-γ induced by PBMC stimulus for CTL generation, target T2 + 708 (T2 cells) [pg/mL] | IFN-γ induced by PBMC stimulus for CTL generation, target T2 + 804 (T2 cells) [pg/mL] | IFN-γ induced by PBMC stimulus for CTL generation, target T2 only (T2 cells) [pg/mL] | DC50 (time required for the loss of 50% of the HLA-A*0201/peptide complexes stabilized at t=0) ([2]; 100 μM peptide) [h] | Binding to HLA-A2 / HLA-A*0201 molecules (in words) ([2]; listed as SEQ ID NO:1) | Binding to HLA-A2 / HLA-A*0201 molecules (in words) ([2]; listed as peptide 405) | Tetramer positive cell ([3]; CD8+ T cells stimulated by autologous DC pulsed with peptide, PE HLA-A*0201/peptide tetramer and anti-CD8-FITC) [%] | Immunogenicity (in words) ([3]; overall conclusion of Example 1) | Cell fluorescence (binding to HLA-A2) [4] |
| --- | --- | --- | --- | --- | --- | --- | --- | --- | --- | --- | --- | --- | --- |
| FLLPALIFAV (Homo sapien) [CD133-804] | 450 | 275 | 148 | 294 | 247 | 409 | 211 |  |  |  |  |  |  |
| ILSAFSVYV (Homo sapien) [CD133-405] | 2311 | 334 | 311 | 2450 | 394 | 390 | 289 | >6 | bound strongly | binds relatively strongly | 3.72 | highly immunogenic |  |
| MLLQVSHYL (Mus Musculus) [SEQ ID NO:11] |  |  |  |  |  |  |  |  |  |  |  |  | increased in a dose-dependent manner |
| SLNDPLCLV (Homo sapien) [CD133-301] | 390 | 174 | 165 | 185 | 214 | 252 | 179 |  |  |  |  |  |  |
| LLFIILMPLV (Homo sapien) [CD133-117] | 262 | 322 | 247 | 262 | 192 | 336 | 275 |  |  |  |  |  |  |
| GLLERVTRI (Homo sapien) [CD133-708] | 403 | 281 | 234 | 326 | 286 | 258 | 206 |  |  |  |  |  |  |
